The results in this text go back to patent US20080255206A1, “Rxr Agonists and Antagonists, Alone or in Combination with Ppar Ligands, in the Treatment of Metabolic and Cardiovascular Diseases” (priority 2005, published 2008).

One assay deals with T1, RARγ (Homo sapiens, UniProt P13631).
T1 construct: The DEF domains of RAR's and the full length RXR's, expressed in E.coli; made in house; host or cells: E. coli
T1 sequence (P13631 185-419 limits assumed): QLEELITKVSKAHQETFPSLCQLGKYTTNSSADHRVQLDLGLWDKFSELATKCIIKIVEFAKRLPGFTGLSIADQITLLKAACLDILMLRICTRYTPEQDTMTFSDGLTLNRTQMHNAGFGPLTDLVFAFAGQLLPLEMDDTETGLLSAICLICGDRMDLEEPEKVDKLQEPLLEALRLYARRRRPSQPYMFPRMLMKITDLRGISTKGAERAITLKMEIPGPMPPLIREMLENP
The assay can be described thus: Retinoid binding assay, RARγ. Conditions: read-out: Binding Affinity IC50 RAR γ. From the text:
(§1) The DEF domains of RAR's and the full length RXR's, expressed in E.coli, are used to measure competitive retinoid binding. […] 9-cis retinoic acid (for RXR's), respectively. […] Separation of bound from free radioactivity is achieved by charcoal/dextran (RAR's) or by desalting columns (RXR's). […] Retinoid Activation Assays

For the next assay, the target named is T2, RXRγ (Homo sapiens, UniProt P48443).
T2 sequence (P48443 1-463): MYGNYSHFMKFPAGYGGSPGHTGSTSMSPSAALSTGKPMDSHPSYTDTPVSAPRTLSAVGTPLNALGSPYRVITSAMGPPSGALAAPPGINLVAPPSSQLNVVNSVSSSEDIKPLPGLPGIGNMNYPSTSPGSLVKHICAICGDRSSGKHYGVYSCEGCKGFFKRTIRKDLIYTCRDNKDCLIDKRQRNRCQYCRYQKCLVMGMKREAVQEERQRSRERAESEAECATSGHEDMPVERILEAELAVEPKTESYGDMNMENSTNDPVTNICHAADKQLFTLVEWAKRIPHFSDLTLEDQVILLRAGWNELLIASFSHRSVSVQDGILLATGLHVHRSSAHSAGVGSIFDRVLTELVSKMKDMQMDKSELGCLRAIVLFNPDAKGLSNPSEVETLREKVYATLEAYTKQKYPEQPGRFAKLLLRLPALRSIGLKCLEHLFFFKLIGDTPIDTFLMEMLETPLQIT
As to the kind of experiment: Retinoid activation assay, RXRγ (Schneider SL-3 cells, luciferase reporter). Particulars: read-out: Activation EC50 RXR γ. The format is cell-based. Put shortly:
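Drosophila Schneider SL-3 cells transiently transfected (Ca-phosphate, 3-4 h before assay) with full-length RXR cDNA plus luciferase reporter driven by three rat CRBP RXR response elements on an alcohol dehydrogenase promoter. Supernatant luciferase read after incubation; EC50 is concentration giving half-maximal activation.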
For orientation: A reporter such as luciferase makes a cellular process visible.

For another assay, the target named is T3, RXRα Homodimer (Homo sapiens, UniProt P19793).
T3 construct: expressed in transfected cells; host or cells: mammalian cells (BHK21, CV1, etc)
T3 sequence (P19793 1-462): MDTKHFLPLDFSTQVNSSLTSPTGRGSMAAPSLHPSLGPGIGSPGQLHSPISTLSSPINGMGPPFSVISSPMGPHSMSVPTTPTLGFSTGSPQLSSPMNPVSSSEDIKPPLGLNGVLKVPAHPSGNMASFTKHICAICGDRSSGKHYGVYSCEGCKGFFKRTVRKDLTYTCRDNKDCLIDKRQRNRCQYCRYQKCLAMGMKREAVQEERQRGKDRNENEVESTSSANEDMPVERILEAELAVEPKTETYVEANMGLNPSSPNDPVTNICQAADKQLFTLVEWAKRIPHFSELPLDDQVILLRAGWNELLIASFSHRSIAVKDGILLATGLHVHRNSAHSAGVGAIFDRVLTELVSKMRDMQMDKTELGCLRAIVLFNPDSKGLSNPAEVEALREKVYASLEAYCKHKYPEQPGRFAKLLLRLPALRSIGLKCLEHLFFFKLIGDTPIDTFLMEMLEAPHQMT
As to the kind of experiment: RXRα homodimer activation (transactivation) assay. The assay is classed as cell-based. Put shortly: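 GAL4 DNA-binding domain–LBD chimera co-transfected into mammalian cells (e.g. BHK21, CV1) with a GAL4-site luciferase reporter. EC50 and partial/full agonism judged against a reference or natural ligand.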

A further assay deals with T4, RARα (Homo sapiens, UniProt P10276).
T4 sequence (P10276 183-417 limits assumed): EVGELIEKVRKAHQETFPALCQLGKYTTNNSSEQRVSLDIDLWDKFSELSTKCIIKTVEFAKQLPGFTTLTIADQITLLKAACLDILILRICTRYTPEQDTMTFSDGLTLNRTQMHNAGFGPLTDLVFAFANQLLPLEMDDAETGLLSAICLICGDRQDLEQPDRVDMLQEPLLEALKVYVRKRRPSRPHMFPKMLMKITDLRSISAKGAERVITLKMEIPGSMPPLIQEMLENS
The assay can be described thus: Retinoid binding assay, RARα. More on the design: The DEF domains of RAR's and the full length RXR's, expressed in E.coli; made in house; host or cells: E. coli. Particulars: read-out: Binding Affinity IC50 RAR α.
Text: as §1

The target in the next assay is T5, RARβ (Homo sapiens, UniProt P10826).
T5 sequence (P10826 183-417 limits assumed): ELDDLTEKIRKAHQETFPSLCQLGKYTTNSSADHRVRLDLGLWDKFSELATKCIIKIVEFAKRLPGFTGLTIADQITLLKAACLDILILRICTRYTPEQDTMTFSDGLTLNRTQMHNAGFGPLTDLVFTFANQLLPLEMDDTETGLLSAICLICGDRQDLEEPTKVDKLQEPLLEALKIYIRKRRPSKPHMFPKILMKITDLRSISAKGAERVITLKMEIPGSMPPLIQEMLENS
The assay can be described thus: Retinoid binding assay, RARβ. More on the design: The DEF domains of RAR's and the full length RXR's, expressed in E.coli; made in house; host or cells: E. coli. Particulars: read-out: Binding Affinity IC50 RAR β.
Text: as §1

By IC50 is commonly meant the midpoint of a concentration-inhibition curve. One may read the EC50 as the concentration giving half of the maximal effect. Consider `CCOc1c([C@@H]2C[C@@H]2/C=C/C(C)=C/C(=O)O)cc(C(C)(C)C)cc1C(C)(C)C` (racemic) [Compound 17, (2E,4E)-(1RS,2RS)-5-[2-(3,5-Di-tert-butyl-2-ethoxy-phenyl)-cyclopropyl]-3-methyl-penta-2,4-dienoic acid], for which the IC50 on RARγ, on RARα and on RARβ was greater than 10 µM throughout. Also, the results for the EC50 on RXRγ and on RXRα Homodimer were no less than 10 µM and greater than 10 µM, respectively.

On to `CC(/C=C/C1=C(c2ccc3c(c2)C(C)(C)CCC3(C)C)CCC1)=C\C(=O)O` [Compound 12, (2E,4E)-3-Methyl-5-[2-(5,5,8,8-tetramethyl-5,6,7,8-tetrahydro-naphthalen-2-yl)-cyclopent-1-enyl]-penta-2,4-dienoic acid], for which the IC50 was determined as 6.6 µM at RARγ, 3.5 µM at RARα and 2.5 µM at RARβ. Moreover, the EC50 was 0.15 µM on RXRγ and 0.009 µM at RXRα Homodimer.

For `CC(/C=C/c1ccccc1-c1ccc2c(c1)C(C)(C)CCC2(C)C)=C\C(=O)O` [Compound 7, (2E,4E)-3-methyl-5-[2-(5,5,8,8-tetramethyl-5,6,7,8-tetrahydro-naphthalen-2-yl)-phenyl]-penta-2,4-dienoic acid], the IC50 on RARγ was 6.3 µM; on RARα it was greater than 10 µM; at RARβ, greater than 10 µM. Further, the figures for the half-maximal effective concentration (EC50) on RXRγ and on RXRα Homodimer were 0.4 µM and 0.006 µM, respectively.
